Legend:
[1] = target: Mitogen-activated protein kinase kinase kinase 12 (Homo sapiens) (UniProt Q12852); details: Compound concentration 100.0 nM
[2] = target: Focal adhesion kinase 1 (Homo sapiens) (UniProt Q05397); details: Compound concentration 100.0 nM
[3] = target: Serine/threonine-protein kinase ULK1 (Homo sapiens) (UniProt O75385); details: Compound concentration 100.0 nM
[4] = target: Beta-adrenergic receptor kinase 1 (Homo sapiens) (UniProt P25098); details: Compound concentration 100.0 nM
[5] = target: Serine/threonine-protein kinase TBK1 (Homo sapiens) (UniProt Q9UHD2); details: Compound concentration 100.0 nM
[6] = target: Serine/threonine-protein kinase tousled-like 2 (Homo sapiens) (UniProt Q86UE8); details: Compound concentration 100.0 nM
[7] = target: Dual specificity tyrosine-phosphorylation-regulated kinase 1B (Homo sapiens) (UniProt Q9Y463); details: Compound concentration 100.0 nM
[8] = target: Ribosomal protein S6 kinase alpha-3 (Homo sapiens) (UniProt P51812); details: Compound concentration 100.0 nM
[9] = target: Serine/threonine-protein kinase pim-1 (Homo sapiens) (UniProt P11309); details: Compound concentration 100.0 nM
[10] = target: Angiopoietin-1 receptor (Homo sapiens) (UniProt Q02763); details: Compound concentration 100.0 nM
[11] = target: Serine/threonine-protein kinase Nek1 (Homo sapiens) (UniProt Q96PY6); details: Compound concentration 100.0 nM
[12] = target: Mitogen-activated protein kinase kinase kinase 2 (Homo sapiens) (UniProt Q9Y2U5); details: Compound concentration 100.0 nM
[13] = target: Tyrosine-protein kinase Srms (Homo sapiens) (UniProt Q9H3Y6); details: Compound concentration 100.0 nM
[14] = system: Proto-oncogene tyrosine-protein kinase receptor Ret (Homo sapiens), P07949 [V804M]; details: Compound concentration 100.0 nM
[15] = target: Cyclin-dependent kinase 8 (Homo sapiens) (UniProt P49336); details: Compound concentration 100.0 nM
[16] = target: Serine/threonine-protein kinase 16 (Homo sapiens) (UniProt O75716); details: Compound concentration 100.0 nM
[17] = system: Tyrosine-protein kinase ABL1 (Homo sapiens), P00519 [H396P]; details: Compound concentration 100.0 nM
[18] = system: Phosphatidylinositol 4,5-bisphosphate 3-kinase catalytic subunit alpha isoform (Homo sapiens), P42336 [Q546K]; details: Compound concentration 100.0 nM
[19] = target: Histamine H3 receptor (Homo sapiens) (UniProt Q9Y5N1); details: Compound concentration 10.0 uM
[20] = target: Serine/threonine-protein kinase MRCK alpha (Homo sapiens) (UniProt Q5VT25); details: Compound concentration 100.0 nM
[21] = system: Receptor-type tyrosine-protein kinase FLT3 (Homo sapiens), P36888 [D835V]; details: Compound concentration 100.0 nM
[22] = target: Atypical kinase COQ8B, mitochondrial (Homo sapiens) (UniProt Q96D53); details: Compound concentration 100.0 nM
[23] = system: Tyrosine-protein kinase ABL1 (Homo sapiens), P00519 [Q252H]; details: Compound concentration 100.0 nM
[24] = target: Interleukin-1 receptor-associated kinase 1 (Homo sapiens) (UniProt P51617); details: Compound concentration 100.0 nM
[25] = target: Cyclin-dependent kinase 4 (Homo sapiens) (UniProt P11802); details: Compound concentration 100.0 nM
[26] = target: D(1B) dopamine receptor (Homo sapiens) (UniProt P21918); details: Compound concentration 10.0 uM
[27] = target: Receptor-type tyrosine-protein kinase FLT3 (Homo sapiens) (UniProt P36888); details: Compound concentration 100.0 nM
[28] = target: Rhodopsin kinase GRK1 (Homo sapiens) (UniProt Q15835); details: Compound concentration 100.0 nM
[29] = target: T1, Cytoplasmic tyrosine-protein kinase BMX (Homo sapiens) (UniProt P51813); details: Compound concentration 100.0 nM
T1 sequence (whole entry): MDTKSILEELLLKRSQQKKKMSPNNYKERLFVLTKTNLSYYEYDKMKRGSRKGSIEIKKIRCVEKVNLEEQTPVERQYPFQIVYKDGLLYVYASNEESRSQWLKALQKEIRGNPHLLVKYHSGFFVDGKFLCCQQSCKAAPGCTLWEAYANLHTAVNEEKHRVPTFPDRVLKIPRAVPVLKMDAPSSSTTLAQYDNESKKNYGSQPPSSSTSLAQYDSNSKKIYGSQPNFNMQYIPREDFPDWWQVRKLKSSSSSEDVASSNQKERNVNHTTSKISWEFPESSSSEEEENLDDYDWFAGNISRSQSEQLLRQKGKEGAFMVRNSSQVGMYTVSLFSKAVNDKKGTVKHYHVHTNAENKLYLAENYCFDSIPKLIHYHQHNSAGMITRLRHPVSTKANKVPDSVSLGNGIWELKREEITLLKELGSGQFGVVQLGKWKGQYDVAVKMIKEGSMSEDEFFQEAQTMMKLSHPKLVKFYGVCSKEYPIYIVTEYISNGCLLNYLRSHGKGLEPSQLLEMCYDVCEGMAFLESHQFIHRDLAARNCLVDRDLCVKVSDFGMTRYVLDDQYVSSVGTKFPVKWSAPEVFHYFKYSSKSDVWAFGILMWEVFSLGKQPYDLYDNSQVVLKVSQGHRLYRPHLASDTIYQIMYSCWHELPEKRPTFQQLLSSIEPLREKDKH

[30] = target: Cyclin-dependent kinase 15 (Homo sapiens) (UniProt Q96Q40); details: Compound concentration 100.0 nM
[31] = target: Activin receptor type-1-like (Homo sapiens) (UniProt P37023); details: Compound concentration 100.0 nM
[32] = target: Serine/threonine-protein kinase PLK4 (Homo sapiens) (UniProt O00444); details: Compound concentration 100.0 nM
[33] = target: Mitogen-activated protein kinase kinase kinase 15 (Homo sapiens) (UniProt Q6ZN16); details: Compound concentration 100.0 nM
[34] = target: Proto-oncogene tyrosine-protein kinase Src (Homo sapiens) (UniProt P12931); details: Compound concentration 100.0 nM
[35] = target: Death-associated protein kinase 1 (Homo sapiens) (UniProt P53355); details: Compound concentration 100.0 nM
[36] = target: Tyrosine-protein kinase receptor Tie-1 (Homo sapiens) (UniProt P35590); details: Compound concentration 100.0 nM

Atypical kinase COQ8B, mitochondrial (Homo sapiens), sequence (Q96D53 whole entry): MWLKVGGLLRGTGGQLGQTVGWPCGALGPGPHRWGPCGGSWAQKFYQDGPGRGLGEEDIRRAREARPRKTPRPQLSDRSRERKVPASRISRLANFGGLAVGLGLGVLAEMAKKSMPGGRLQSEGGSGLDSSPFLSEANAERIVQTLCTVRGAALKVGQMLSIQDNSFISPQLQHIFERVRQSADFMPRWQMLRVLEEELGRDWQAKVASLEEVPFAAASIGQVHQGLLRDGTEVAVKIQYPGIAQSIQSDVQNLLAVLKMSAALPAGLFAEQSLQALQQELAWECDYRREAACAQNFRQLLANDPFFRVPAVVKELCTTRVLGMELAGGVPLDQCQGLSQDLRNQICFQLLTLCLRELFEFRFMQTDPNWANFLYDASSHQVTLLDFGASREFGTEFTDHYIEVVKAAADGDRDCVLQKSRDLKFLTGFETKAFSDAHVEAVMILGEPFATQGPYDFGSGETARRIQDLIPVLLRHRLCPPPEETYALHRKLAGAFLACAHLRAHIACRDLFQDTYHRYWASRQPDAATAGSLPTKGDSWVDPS
D(1B) dopamine receptor (Homo sapiens), sequence (P21918 whole entry): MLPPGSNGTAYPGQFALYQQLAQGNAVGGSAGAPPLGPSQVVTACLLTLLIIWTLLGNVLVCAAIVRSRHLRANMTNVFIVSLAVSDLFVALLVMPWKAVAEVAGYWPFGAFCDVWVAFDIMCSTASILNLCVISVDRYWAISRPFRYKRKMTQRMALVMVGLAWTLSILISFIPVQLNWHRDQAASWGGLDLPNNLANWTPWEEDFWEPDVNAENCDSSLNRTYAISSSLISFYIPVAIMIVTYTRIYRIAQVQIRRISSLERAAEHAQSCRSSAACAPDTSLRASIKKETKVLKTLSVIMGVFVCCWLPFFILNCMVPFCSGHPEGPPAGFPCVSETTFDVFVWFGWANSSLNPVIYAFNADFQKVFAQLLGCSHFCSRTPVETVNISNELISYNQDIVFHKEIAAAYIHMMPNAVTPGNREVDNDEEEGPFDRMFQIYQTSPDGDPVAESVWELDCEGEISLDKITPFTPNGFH
Mitogen-activated protein kinase kinase kinase 2 (Homo sapiens), sequence (Q9Y2U5 whole entry): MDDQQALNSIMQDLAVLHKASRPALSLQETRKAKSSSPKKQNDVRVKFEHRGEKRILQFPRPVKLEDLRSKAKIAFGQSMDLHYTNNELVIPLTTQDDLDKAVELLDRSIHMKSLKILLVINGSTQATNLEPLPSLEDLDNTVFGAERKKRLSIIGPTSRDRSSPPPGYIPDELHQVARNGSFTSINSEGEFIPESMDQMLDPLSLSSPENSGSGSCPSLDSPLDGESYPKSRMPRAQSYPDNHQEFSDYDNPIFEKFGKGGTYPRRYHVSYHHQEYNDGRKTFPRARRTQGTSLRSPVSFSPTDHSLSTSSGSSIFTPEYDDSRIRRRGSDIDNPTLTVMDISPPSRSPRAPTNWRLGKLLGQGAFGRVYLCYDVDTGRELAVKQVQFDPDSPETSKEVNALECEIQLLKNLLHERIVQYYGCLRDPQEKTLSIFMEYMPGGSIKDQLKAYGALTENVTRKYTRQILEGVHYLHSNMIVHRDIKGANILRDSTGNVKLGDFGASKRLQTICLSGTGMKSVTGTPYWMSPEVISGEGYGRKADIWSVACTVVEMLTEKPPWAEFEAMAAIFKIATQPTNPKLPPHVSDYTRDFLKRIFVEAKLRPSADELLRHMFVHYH
Serine/threonine-protein kinase TBK1 (Homo sapiens), sequence (Q9UHD2 whole entry): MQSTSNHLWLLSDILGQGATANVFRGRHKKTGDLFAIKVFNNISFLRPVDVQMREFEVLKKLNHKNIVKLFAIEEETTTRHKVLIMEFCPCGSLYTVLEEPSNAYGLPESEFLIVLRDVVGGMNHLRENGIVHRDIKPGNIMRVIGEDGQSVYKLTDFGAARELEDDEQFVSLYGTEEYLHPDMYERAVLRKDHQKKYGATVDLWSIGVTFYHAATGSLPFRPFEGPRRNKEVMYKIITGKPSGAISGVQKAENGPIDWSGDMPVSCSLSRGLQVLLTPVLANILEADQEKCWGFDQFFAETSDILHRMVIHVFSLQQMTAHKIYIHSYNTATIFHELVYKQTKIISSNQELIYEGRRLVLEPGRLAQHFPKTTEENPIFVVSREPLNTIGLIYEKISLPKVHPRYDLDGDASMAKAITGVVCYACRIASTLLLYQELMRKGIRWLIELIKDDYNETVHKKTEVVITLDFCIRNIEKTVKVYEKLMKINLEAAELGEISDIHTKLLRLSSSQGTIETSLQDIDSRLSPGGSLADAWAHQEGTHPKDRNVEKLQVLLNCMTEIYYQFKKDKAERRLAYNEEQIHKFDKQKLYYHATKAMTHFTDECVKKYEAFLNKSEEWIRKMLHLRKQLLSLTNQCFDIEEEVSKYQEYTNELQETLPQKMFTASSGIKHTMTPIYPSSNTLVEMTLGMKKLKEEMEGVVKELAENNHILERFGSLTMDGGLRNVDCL
Cyclin-dependent kinase 15 (Homo sapiens), sequence (Q96Q40 whole entry): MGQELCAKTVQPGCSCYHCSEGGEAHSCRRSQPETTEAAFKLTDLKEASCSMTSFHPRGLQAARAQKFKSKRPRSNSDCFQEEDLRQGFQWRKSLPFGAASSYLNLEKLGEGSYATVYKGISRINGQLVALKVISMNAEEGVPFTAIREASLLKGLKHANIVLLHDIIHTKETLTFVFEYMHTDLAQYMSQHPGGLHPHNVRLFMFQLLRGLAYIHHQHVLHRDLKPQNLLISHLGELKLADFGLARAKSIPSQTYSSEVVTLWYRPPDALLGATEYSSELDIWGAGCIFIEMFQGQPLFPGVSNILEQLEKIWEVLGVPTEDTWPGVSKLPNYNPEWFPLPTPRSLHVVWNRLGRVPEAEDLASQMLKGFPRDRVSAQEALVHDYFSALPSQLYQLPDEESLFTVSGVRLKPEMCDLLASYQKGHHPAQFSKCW
Rhodopsin kinase GRK1 (Homo sapiens), sequence (Q15835 whole entry): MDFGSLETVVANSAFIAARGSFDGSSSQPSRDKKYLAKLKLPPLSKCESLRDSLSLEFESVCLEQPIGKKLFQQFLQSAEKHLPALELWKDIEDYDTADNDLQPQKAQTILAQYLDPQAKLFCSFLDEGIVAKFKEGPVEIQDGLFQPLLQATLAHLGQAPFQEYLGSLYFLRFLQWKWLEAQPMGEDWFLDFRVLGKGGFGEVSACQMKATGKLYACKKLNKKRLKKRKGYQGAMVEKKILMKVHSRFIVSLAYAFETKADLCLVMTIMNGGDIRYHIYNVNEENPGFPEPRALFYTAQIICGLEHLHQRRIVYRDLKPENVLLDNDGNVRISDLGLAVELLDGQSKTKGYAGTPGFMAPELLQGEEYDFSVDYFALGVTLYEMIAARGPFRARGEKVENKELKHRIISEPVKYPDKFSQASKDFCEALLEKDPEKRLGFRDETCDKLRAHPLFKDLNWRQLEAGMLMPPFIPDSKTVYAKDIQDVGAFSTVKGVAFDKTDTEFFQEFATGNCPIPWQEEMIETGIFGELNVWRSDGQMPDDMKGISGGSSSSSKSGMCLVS
Cyclin-dependent kinase 4 (Homo sapiens), sequence (P11802 whole entry): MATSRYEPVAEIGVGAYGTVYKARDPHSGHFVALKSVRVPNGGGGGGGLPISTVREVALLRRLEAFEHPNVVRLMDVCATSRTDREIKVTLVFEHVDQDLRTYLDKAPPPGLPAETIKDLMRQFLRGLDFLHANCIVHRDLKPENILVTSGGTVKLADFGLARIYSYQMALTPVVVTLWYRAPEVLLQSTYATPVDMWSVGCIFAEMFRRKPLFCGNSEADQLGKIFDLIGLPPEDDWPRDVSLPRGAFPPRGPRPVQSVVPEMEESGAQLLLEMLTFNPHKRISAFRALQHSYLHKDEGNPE
Proto-oncogene tyrosine-protein kinase receptor Ret (Homo sapiens), P07949 [V804M], sequence (P07949 whole entry V804M): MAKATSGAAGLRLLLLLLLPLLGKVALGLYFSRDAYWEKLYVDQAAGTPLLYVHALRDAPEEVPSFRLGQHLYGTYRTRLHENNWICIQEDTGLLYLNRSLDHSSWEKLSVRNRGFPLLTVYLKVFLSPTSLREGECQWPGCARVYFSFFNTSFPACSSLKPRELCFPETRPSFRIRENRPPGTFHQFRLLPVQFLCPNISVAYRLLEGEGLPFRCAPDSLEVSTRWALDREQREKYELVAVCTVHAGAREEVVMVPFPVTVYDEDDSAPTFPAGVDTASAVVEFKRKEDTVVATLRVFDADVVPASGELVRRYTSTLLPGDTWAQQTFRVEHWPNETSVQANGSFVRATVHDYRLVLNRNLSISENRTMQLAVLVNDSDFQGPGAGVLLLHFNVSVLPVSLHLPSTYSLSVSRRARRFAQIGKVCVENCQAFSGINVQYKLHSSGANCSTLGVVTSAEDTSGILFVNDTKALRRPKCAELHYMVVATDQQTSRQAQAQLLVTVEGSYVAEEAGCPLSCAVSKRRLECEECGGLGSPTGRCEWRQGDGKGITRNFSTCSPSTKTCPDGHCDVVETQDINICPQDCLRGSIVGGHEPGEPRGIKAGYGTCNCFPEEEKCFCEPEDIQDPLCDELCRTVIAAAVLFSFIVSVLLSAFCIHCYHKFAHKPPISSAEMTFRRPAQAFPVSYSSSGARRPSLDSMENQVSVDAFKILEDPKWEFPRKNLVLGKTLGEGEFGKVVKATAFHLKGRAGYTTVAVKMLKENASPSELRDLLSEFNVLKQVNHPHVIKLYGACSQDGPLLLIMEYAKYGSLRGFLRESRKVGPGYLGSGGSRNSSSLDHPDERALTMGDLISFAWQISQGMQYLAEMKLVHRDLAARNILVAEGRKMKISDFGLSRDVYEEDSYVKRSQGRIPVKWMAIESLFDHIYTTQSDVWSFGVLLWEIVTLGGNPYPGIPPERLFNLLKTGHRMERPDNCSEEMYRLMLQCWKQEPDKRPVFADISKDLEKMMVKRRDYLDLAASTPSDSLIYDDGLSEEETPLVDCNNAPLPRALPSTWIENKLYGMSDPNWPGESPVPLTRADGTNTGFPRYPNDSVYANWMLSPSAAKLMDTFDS

Cn1cc(Cl)c2c(Oc3c(F)cc(Nc4cc(Cl)nc(N)n4)cc3F)ccnc21 [BAY-4900]
inactive: residual activity [1] 100% | residual activity [2] 100% | residual activity [3] 93% | residual activity [4] 81% | residual activity [5] 100% | residual activity [6] 100% | residual activity [7] 82% | residual activity [8] 71% | residual activity [9] 100% | residual activity [10] 100% | residual activity [11] 100% | residual activity [12] 79% | residual activity [13] 100% | residual activity [14] 95% | residual activity [15] 97% | residual activity [16] 100% | residual activity [17] 95% | residual activity [18] 76% | inhibition [19] 31% | residual activity [20] 84% | residual activity [21] 91% | residual activity [22] 89% | residual activity [23] 94% | residual activity [24] 95% | residual activity [25] 100% | inhibition [26] 9.8% | residual activity [27] 83% | residual activity [28] 92% | residual activity [29] 97% | residual activity [30] 94% | residual activity [31] 93% | residual activity [32] 83% | residual activity [33] 84% | residual activity [34] 92% | residual activity [35] 100% | residual activity [36] 100%

Cc1c[nH]c2nccc(Oc3c(F)cc(Nc4cc(Cl)nc(N)n4)cc3F)c12 [BAY-549]
inactive: residual activity [1] 98% | residual activity [2] 100% | residual activity [3] 92% | residual activity [4] 98% | residual activity [5] 96% | residual activity [6] 95% | residual activity [7] 100% | residual activity [8] 79% | residual activity [9] 100% | residual activity [10] 95% | residual activity [11] 96% | residual activity [12] 89% | residual activity [13] 100% | residual activity [14] 100% | residual activity [15] 69% | residual activity [16] 87% | residual activity [17] 95% | residual activity [18] 76% | inhibition [19] 8.13% | residual activity [20] 98% | residual activity [21] 90% | residual activity [22] 88% | residual activity [23] 91% | residual activity [24] 90% | residual activity [25] 100% | inhibition [26] 21.9% | residual activity [27] 75% | residual activity [28] 82% | residual activity [29] 100% | residual activity [30] 76% | residual activity [31] 100% | residual activity [32] 82% | residual activity [33] 94% | residual activity [34] 100% | residual activity [35] 98% | residual activity [36] 94%
